In general, EC50 refers to the concentration at which the effect is half-maximal. Lower therefore signals greater potency. Broadly, the IC50 is the concentration needed to halve the response being measured.

The record followed here is patent publication US6867185B2 (Bristol-Myers Squibb Company, priority 2001, dated 2005).

Structures can show the parent of a compound that is named as a salt.

In experiment [1] the test system is HCV replicon in Huh7 cells. The experiment in a line: HCV replicon cell-based assay (replicon FRET assay). Details: species or system HCV strain 1B. The conditions noted are these: Hepatitis C virus, Huh-7, HCV replicon cell assay; EC50 ranges. From the text: An HCV replicon whole cell system was established as described by Lohmann V, Korner F, Koch J, Herian U, Theilmann L, Bartenschlager R., Science 285 (5424):110-3 (1999). This system enabled us to evaluate the effects of our HCV Protease compounds on HCV RNA replication. Briefly, using the HCV strain 1B sequence described in the Lohmann paper (Assession number:AJ238799), an HCV cDNA was generated encoding the 5′ internal ribosome entry site (IRES), the neomycin resistance gene, the EMCV (encephalomyocarditis viurs)-IRES and the HCV nonstructural proteins, NS3-NS5B, and 3′ non-translated region (NTR). In vitro transcripts of the cDNA were transfected into the human hepatoma cell line, Huh7. […] Resulting cell lines were characterized for positive and negative strand RNA production and protein production over time.
Huh7 cells, constitutively expressing the HCV replicon, were grown in Dulbecco's Modified Eagle Media (DMEM) containing 10% Fetal calf serum (FCS) and 1 mg/ml G418 (Gibco-BRL). Cells were seeded the night before (1.5×10^4 cells/well) in 96-well tissue-culture sterile plates. Compound and no compound controls were prepared in DMEM containing 4% FCS, 1:100 Penicillin/Streptomysin, 1:100 L-glutamine and 5% DMSO in the dilution plate (0.5% DMSO final concentration in the assay). Compound/DMSO mixes were added to the cells and incubated for 4 days at 37° C. After 4 days, plates were rinsed thoroughly with Phosphate-Buffered Saline (PBS) (3 times 150 μl). The cells were lysed with 25 μl of a lysis assay reagent containing the FRET peptide (RET S1, as described for the in vitro enzyme assay). The lysis assay reagent was made from 5× cell Luciferase cell culture lysis reagent(Promega #E153A) diluted to 1× with distilled water, NaCl added to 150 mM final, the FRET peptide diluted to 10 μM final from a 2 mM stock in 100% DMSO. The plate was then placed into the Cytofluor 4000 instrument which had been set to 340 nm excitation/490 emission, automatic mode for 21 cycles and the plate read in a kinetic mode. EC50 determinations were carried out as described for the IC50 determinations.
On the technique in general: In antiviral work, replicon cells carry a viral genome segment that copies itself.

Experiment [2] deals with T1, HCV NS3/4A protease complex, BMS strain (genotype 1a) (Hepatitis C virus genotype 1a, UniProt P27958, C1454S/C1711G).
T1 construct: recombinant HCV NS3/4A protease complex (amino'acids 1027 to 1711); inferred from the pET21b vector and Ni-NTA purification; made in house; host or cells: Escherichia coli BL21 (DE3), pET21b
T1 sequence (P27958 1027-1711 C1454S/C1711G, one chain of several): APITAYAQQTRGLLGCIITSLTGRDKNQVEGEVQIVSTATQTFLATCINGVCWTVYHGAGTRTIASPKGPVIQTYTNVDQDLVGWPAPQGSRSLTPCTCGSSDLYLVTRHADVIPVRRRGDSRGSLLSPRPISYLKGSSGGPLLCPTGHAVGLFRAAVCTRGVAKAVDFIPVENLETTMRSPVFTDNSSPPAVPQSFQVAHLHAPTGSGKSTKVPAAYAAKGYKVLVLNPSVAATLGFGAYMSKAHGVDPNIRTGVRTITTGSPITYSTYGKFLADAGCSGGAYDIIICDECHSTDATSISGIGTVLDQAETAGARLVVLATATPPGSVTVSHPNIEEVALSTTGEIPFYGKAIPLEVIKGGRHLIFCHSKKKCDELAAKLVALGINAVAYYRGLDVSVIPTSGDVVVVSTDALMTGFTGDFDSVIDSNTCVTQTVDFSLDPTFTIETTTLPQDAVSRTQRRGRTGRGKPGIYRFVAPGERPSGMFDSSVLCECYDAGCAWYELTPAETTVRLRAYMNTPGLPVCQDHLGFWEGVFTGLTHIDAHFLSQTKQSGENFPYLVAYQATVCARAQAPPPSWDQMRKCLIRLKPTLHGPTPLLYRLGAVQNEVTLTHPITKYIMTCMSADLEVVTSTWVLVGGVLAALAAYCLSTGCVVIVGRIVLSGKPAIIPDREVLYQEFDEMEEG
The experiment in a line: Recombinant HCV NS3/4A protease complex FRET peptide assay (BMS strain). The format is biochemical. The following applies: IC50, HCV NS3/4A protease FRET assay in vitro; IC50 ranges. The text has this:
The purpose of this in vitro assay was to measure the inhibition of HCV NS3 protease complexes, derived from the BMS, H77C or J4L6S strains, as described below, by compounds of the present invention. This assay provides an indication of how effective compounds of the present invention would be in inhibiting HCV proteolytic activity.
Serum from an HCV-infected patient was obtained from Dr. T. Wright, San Francisco Hospital. An engineered full-length cDNA (compliment deoxyribonucleic acid) template of the HCV genome (BMS strain) was constructed from DNA fragments obtained by reverse transcription-PCR (RT-PCR) of serum RNA (ribonucleic acid) and using primers selected on the basis of homology between other genotype 1a strains. From the determination of the entire genome sequence, a genotype 1a was assigned to the HCV isolate according to the classification of Simmonds et al. (See P Simmonds, K A Rose, S Graham, S W Chan, F McOmish, B C Dow, E A Follett, P L Yap and H Marsden, J. Clin. Microbiol., 31 (6), 1493-1503 (1993)). […] The infectious clones, H77C (1a genotype) and J4L6S (1b genotype) were obtained from R. Purcell (N1H) and the sequences are published in Genbank (AAB67036, see Yanagi, M., Purcell, R. H., Emerson, S. U. and Bukh, J. Proc. Natl. Acad. Sci. U.S.A. 94 (16), 8738-8743 (1997); AF054247, see Yanagi, M., St Claire, M., Shapiro, M., Emerson, S. U., Purcell, R. H. and Bukh, J, Virology 244 (1), 161-172. (1998)).
The BMS, H77C and J4L6S strains were used for production of recombinant NS3/4A protease complexes. DNA encoding the recombinant HCV NS3/4A protease complex (amino'acids 1027 to 1711) for these strains were manipulated as described by P. Gallinari et al. (see Gallinari P, Paolini C, Brennan D, Nardi C, Steinkuhler C, De Francesco R. Biochemistry. 38 (17):5620-32, (1999)). Briefly, a three-lysine solubilizing tail was added at the 3′-end of the NS4A coding region. The cysteine in the P1 position of the NS4A-NS4B cleavage site (amino acid 1711) was changed to a glycine to avoid the proteolytic cleavage of the lysine tag. Furthermore, a cysteine to serine mutation was introduced by PCR at amino acid position 1454 to prevent the autolytic cleavage in the NS3 helicase domain. The variant DNA fragment was cloned in the pET21b bacterial expression vector (Novagen)and the NS3/4A complex was expressed in Escherichia. coli strain BL21 (DE3) (Invitrogen) following the protocol described by P. Gallinari et al. (see Gallinari P, Brennan D, Nardi C, Brunetti M, Tomei L, Steinkuhler C, De Francesco R., J. Virol. 72 (8):6758-69 (1998)) with modifications. Briefly, NS3/4A expression was induced with 0.5 mM Isopropyl β-D-1-thiogalactopyranoside (IPTG) for 22 hr at 20° C. A typical fermentation (10L) yielded approximately 80 g of wet cell paste. The cells were resuspended in lysis buffer (10 mL/g) consisting of 25 mM N-(2-Hydroxyethyl)Piperazine-N′-(2-Ethane Sulfonic acid) (HEPES), pH 7.5, 20% glycerol, 500 mM Sodium Chloride (NaCl), 0.5% Triton-X100, 1 ug/ml lysozyme, 5 mM Magnesium Chloride (MgCl2), 1 ug/ml Dnasel, 5 mM β-Mercaptoethanol (OME), Protease inhibitor-Ethylenediamine Tetraacetic acid (EDTA) free (Roche), homogenized and incubated for 20 mins at 4° C. The homogenate was sonicated and clarified by ultra-centrifugation at 235000 g for 1 hr at 4° C. Imidazole was added to the supernatant to a final concentration of 15 mM and the pH adjusted to 8.0. The crude protein extract was loaded on a Nickel-Nitrilotriacetic acid (Ni-NTA) column pre-equilibrated with buffer B (25 mM HEPES, pH 8.0, 20% glycerol, 500 mM NaCl, 0.5% Triton-X100, 15 mM imidazole, 5 mM βME). The sample was loaded at a flow rate of 1 mL/min. The column was washed with 15 column volumes of buffer C (same as buffer B except with 0.2% Triton-X100). The protein was eluted with 5 column volumes of buffer D (same as buffer C except with 200 mM Imidazole). […]

In turn, `COc1ccc2c(O[C@@H]3C[C@H]4C(=O)N[C@]5(C(=O)NS(=O)(=O)C6CC6)C[C@H]5CCCCCC[C@H](NC(=O)OC(C)(C)C)C(=O)N4C3)cc(-c3ccccc3)nc2c1` [Compound 13, (1S,4R,6R,13S,17R)-[4-Cyclopropanesulfonylaminocarbonyl-17-(7-methoxy-2-phenylquinolin-4-yloxy)-2,14-dioxo-3,15-diazatricyclo[13.3.0.0^4,6]-octadec-13-yl]-carbamic acid tert-butyl ester] yielded an EC50 in experiment [1] of less than 50 nM. In addition, the IC50 in experiment [2] was less than 50 nM.

In turn, `COc1ccc2c(O[C@@H]3C[C@H]4C(=O)N[C@]5(C(=O)NS(=O)(=O)C6CCC6)CC5CCCCCCC[C@H](NC(=O)OC(C)(C)C)C(=O)N4C3)cc(-c3ccccc3)nc2c1` (stereo partly drawn) [Compound 19, (1S,4R,6R,14S,18R)-[4-Cyclobutanesulfonylaminocarbonyl-18-(7-methoxy-2-phenylquinolin-4-yloxy)-2,15-dioxo-3,16-diazatricyclo-[14.3.0.0^4,6]nona-dec-14-yl]carbamic acid tert-butyl ester] returned an EC50 in experiment [1] of less than 50 nM. Besides, in experiment [2], the IC50 is less than 50 nM. The compound `COc1ccc2c(O[C@@H]3C[C@H]4C(=O)N[C@]5(C(=O)NS(=O)(=O)C6CC6)CC5/C=C/CCCC[C@H](NC(=O)OC(C)(C)C)C(=O)N4C3)cc(-c3ccccc3)nc2c1` (stereo partly drawn) [Compound 5, (1S,4R,6S,13S,17R)-7-trans-[4-Cyclopropanesul-fonylamino-carbonyl-17-(7-methoxy-2-phenylquinolin-4-yloxy)-2,14-dioxo-3,15-diazatricyclo[13.3.0.0^4,6]octa-dec-7-en-13-yl]carbamic acid tert-butyl ester] displayed an EC50 in experiment [1] of less than 50 nM. Also, in experiment [2], the IC50 was less than 50 nM. As for `COc1ccc2c(O[C@@H]3C[C@H]4C(=O)N[C@]5(C(=O)NS(=O)(=O)C6CC6)C[C@H]5/C=C\CCCCC[C@H](NC(=O)OCCF)C(=O)N4C3)cc(-c3ccccc3)nc2c1` [Compound 21, (1S,4R,6S,14S,18R)-7-cis-[4-Cyclopropanesulfonylaminocarbonyl-18-(7-methoxy-2-phenylquinolin-4-yloxy)-2,15-dioxo-3,16-diazatricyclo-[14.3.0.0^4,6]nonadec-7-en-14-yl]carbamic acid 2-fluoroethyl ester], in experiment [1], the 50% effective concentration (EC50) is less than 50 nM. Besides, the IC50 in experiment [2] is less than 50 nM. As to `COc1ccc2c(O[C@@H]3C[C@H]4C(=O)N[C@]5(C(=O)NS(=O)(=O)C6CC6)CC5/C=C/CCC[C@H](N)C(=O)N4C3)cc(-c3ccccc3)nc2c1` (stereo partly drawn) [Compound 4, (1S,4R,6S,12S,16R)-7-trans-Cyclopropanesulfonic acid [12-amino-16-(7-methoxy-2-phenylquinolin-4-yloxy)-2,13-dioxo-3,14-diazatricyclo [12.3.0.0^4,6]heptadec-7-ene-4-carbonyl]amide dihydrochloride], the IC50 in experiment [2] is less than 50000 nM.

Take `COc1ccc2c(O[C@@H]3C[C@H]4C(=O)N[C@]5(C(=O)NS(=O)(=O)C6CC6)C[C@H]5/C=C\CCCCC[C@H](NC(=O)OC(C)(C)C)C(=O)N4C3)cc(-c3csc(NC(C)=O)n3)nc2c1` [Compound 28, (1S,4R,6S,14S,18R)-7-cis-{18-[2-(2-Acetylaminothiazol-4-yl)-7-methoxyquinolin-4-yloxy]-4-cyclopropanesulfonylaminocarbonyl-2,15-dioxo-3,16-diazatricyclo-[14.3.0.0^4,6]nonadec-7-en-14-yl}carbamic acid tert-butyl ester]: the EC50 in experiment [1] is less than 50 nM. In experiment [2], the IC50 is less than 50 nM. The compound `COc1ccc2c(O[C@@H]3C[C@H]4C(=O)N[C@]5(C(=O)NS(=O)(=O)C6CC6)C[C@H]5CCCCCCC[C@H](N)C(=O)N4C3)cc(-c3ccccc3)nc2c1` [Compound 16, (1S,4R,6R,14S,18R)-Cyclopropanesulfonic acid [14-amino-18-(7-methoxy-2-phenylquinolin-4-yloxy)-2,15-dioxo-3,16-diazatricyclo[14.3.0.0^4,6]-nonadecane-4-carbonyl]amide dihydrochloride] came in with a concentration for a half-maximal effect (EC50) in experiment [1] of less than 50 nM. Also, the IC50 in experiment [2] was less than 50 nM.

Take `COc1ccc2c(O[C@@H]3C[C@H]4C(=O)N[C@]5(C(=O)NS(=O)(=O)C6CC6)CC5/C=C\CCCS(=O)(=O)C[C@H](NC(=O)OC(C)(C)C)C(=O)N4C3)cc(-c3ccccc3)nc2c1` (stereo partly drawn) [Compound 32, (1S,4R,6S,14S,18R)-7-cis-[4-Cyclopropanesulfonylaminocarbonyl-18-(7-methoxy-2-phenyl-quinolin-4-yloxy)-2,12,12,15-tetraoxo-12,16-thia-3,16-diazatricyclo[14.3.0.0^4,6]nonadec-7-en-14-yl]carbamic acid tert-butyl ester]: the EC50 in experiment [1] was less than 50 nM. In addition, the IC50 in experiment [2] was less than 50 nM. Turning to `COc1ccc2c(O[C@@H]3C[C@H]4C(=O)N[C@]5(C(=O)NS(=O)(=O)C6CC6)CC5/C=C/CC[C@H](N)C(=O)N4C3)cc(-c3ccccc3)nc2c1` (stereo partly drawn) [Compound 2, (1S 4R,6S,11S,15R)-7-trans-Cyclopropanesulfonic acid [11-amino-15-(7-methoxy-2-phenylquinolin-4-yloxy)-2,12-dioxo-3,13-diazatricyclo-[11.3.0.0^4,6]hexadec-7-ene-4-carbonyl]amide dihydrochloride], the IC50 in experiment [2] is less than 5000 nM.
